Data on seven compounds can be found in patent publication US4882319A, “Phosphonic acid substituted aromatic steroids as inhibitors of steroid 5-α-reductase” (SmithKline Beckman Corporation, priority 1988, dated 1989).

In assay [1] the target is 5-α-Reductase. The settings on record: cited from earlier work; for Ki: literature value; for Ki / mode of inhibition (Reversible / Irreversible): Table I; for mode of inhibition (Reversible / Irreversible) / time dependence of 5-α-reductase inhibition: literature.
In assay [2] the test system is human steroid 5-α-reductase. The settings on record: read-out: Michaelis-Menton constant (Km) of the substrate (testosterone); determined in a separate experiment.
The target of assay [3] is T1, human steroid 5-α-reductase (Homo sapiens, UniProt P31213).
T1 construct: Prostatic particles were obtained by differential centrifugation; from tissue; host or cells: hyperplastic human prostate, washed 140,000×g particulate fraction
T1 sequence (P31213 1-254): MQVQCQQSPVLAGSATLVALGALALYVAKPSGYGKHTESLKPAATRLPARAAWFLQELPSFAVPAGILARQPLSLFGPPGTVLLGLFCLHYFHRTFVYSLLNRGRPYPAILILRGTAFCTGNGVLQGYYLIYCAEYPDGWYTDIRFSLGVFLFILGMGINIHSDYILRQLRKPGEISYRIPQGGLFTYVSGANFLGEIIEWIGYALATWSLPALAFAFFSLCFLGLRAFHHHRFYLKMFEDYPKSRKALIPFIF
Kind of assay: biochemical. As to the method: A compound of the invention, 17β-(N,N-diisopropylcarboxamide)-estr-1,3,5(10)-triene-3-phosphonic acid, was tested for potency in inhibiting human steroid 5-α-reductase using tissue from hyperplastic human prostates. In determining potency in inhibiting the human enzyme, the following procedure was employed:
Frozen human prostates were thawed and minced into small pieces (5 mm^3). The tissue was homogenized in 3 to 5 volumes of 20 mM potassium phosphate buffer, pH 6.5, containing 0.33M sucrose, 1 mM dithiothreitol, and 50 μM NADPH with a Brinkmann Polytron (Sybron Corporation, Westbury, N.Y.). The solution was subjected to sonication for 3 to 5 minutes with a Sonifier (Branson Sonic Power Co.) followed by hand homogenization in a glass-to-glass Dounce homogenizer (Kontes Glass Company, Vineland, N.J.). […]
A constant amount of [^14 C]-testosterone (52 to 55 mCi/mmol, New England Nuclear, Boston, Mass.) in ethanol and varying amounts of the potential inhibitor in ethanol were deposited in test tubes and concentrated to dryness in a SAVANT Speed Vac. […] The radiochemical content in the bands of the substrate and the products was determined with a BIOSCAN Imaging Scanner (Bioscan, Inc., Washington, D.C.). The percent of recovered radiolabel converted to product was calculated, from which enzyme activity was determined. […]

SMILES strings stand for the structures. Where two headings read alike, the source gives them in different places.

As to `CC12CCC(=O)C=C1CCC1C2CCC2(C)C1CC[C@@H]2C(=O)O` (some centres unmarked) [(1)], in assay [1], the Ki was 1100 nM and the “mode of inhibition (Reversible / Irreversible)” value is recorded as “Reversible”.
In the case of `CC(=O)C1CCC2C3CC=C=CC(=O)CCC(=O)C3CCC12C` (centres unmarked) [(2)], in assay [1], the Ki was 1000 nM and the “mode of inhibition (Reversible / Irreversible)” value is reported as “Irreversible”.
With `C[C@]12CC[C@H]3[C@@H](CCC4=CC(=O)CC[C@@]43C)[C@@H]1CC[C@@H]2O` [testosterone], in assay [2], the Michaelis-Menten constant (Km) came out at 4.5 µM.
In the case of `C=C1CC2C(CCC3(C)C2CC[C@]3(OC(C)=O)C(C)=O)C2(C)CCC(=O)C=C12` (some centres unmarked) [(5)], in assay [1], the Ki was 1250 nM, the “mode of inhibition (Reversible / Irreversible)” value is reported as “Irreversible” and the “time dependence of 5-α-reductase inhibition” value is “time-dependent inactivator”.
`CC(C)N(C(=O)[C@H]1CCC2C3CCc4cc(P(=O)(O)O)ccc4C3CCC21C)C(C)C` (stereo partly drawn) [Example 1, 17β-(N,N-Diisopropylcarboxamide)-estr-1,3,5(10)-triene-3-phosphonic Acid] came in with a Ki in assay [3] of 50 nM.
Consider `CC(CO)C1CCC2C3CC[C@H]4C(=[N+]=[N-])C(=O)CCC4(C)C3CCC12C` (some centres unmarked) [(3)], for which, in assay [1] (unit inferred), the Ki is 35 nM. Further, in assay [1], the “mode of inhibition (Reversible / Irreversible)” value is reported as “Irreversible” and the “time dependence of 5-α-reductase inhibition” value is reported as “potent, time-dependent inhibitor”.
Regarding `CCN(CC)C(=O)C1CCC2C3CC[C@H]4N(C)C(=O)CCC4(C)C3CCC12C` (some centres unmarked) [(4)], in assay [1], the Ki was 5 nM and the “mode of inhibition (Reversible / Irreversible)” value is “Reversible”.

As a reminder, the Ki is a measure of affinity in units of concentration, obtained from inhibition or displacement. By Km is commonly meant the substrate concentration at which the rate is half of its maximum.
